Experimental data published in PubChem BioAssay (NCI).
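Following 48 hours of exposure in 96-well plates, responses at five concentrations were used to interpolate endpoints linearly. TGI: total growth inhibition.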

Columns and labels:
Assay in all cases: NCI tumour cell line growth inhibition, 48 h
ACHN renal = system: ACHN renal
EKVX NSCLC = system: EKVX NSCLC
HL-60(TB) leukemia = system: HL-60(TB) leukemia
K-562 leukemia = system: K-562 leukemia
MDA-MB-231 breast = system: MDA-MB-231 breast
NCI-H522 lung = system: NCI-H522 lung
OVCAR-8 ovarian = system: OVCAR-8 ovarian
SF-539 CNS = system: SF-539 CNS
SN12C renal = system: SN12C renal
SW-620 colon = system: SW-620 colon

Row | SMILES | TGI (ACHN renal) | TGI (EKVX NSCLC) | TGI (HL-60(TB) leukemia) | TGI (K-562 leukemia) | TGI (MDA-MB-231 breast) | TGI (NCI-H522 lung) | TGI (OVCAR-8 ovarian) | TGI (SF-539 CNS) | TGI (SN12C renal) | TGI (SW-620 colon)
1 | Cn1c2c(c3ccccc31)CCN1C(=O)C34CCCC3CC21S4 (stereo not given) | > 100 µM | > 100 µM | > 100 µM | > 100 µM | > 100 µM | > 100 µM | > 100 µM | > 100 µM | > 100 µM | > 100 µM
2 | Cc1ccc2c(c1C)CC1(Cc3c(C)ccc(C)c3C1=O)C2=O (stereo not given) | > 100 µM | > 100 µM | > 100 µM | > 100 µM | > 100 µM | > 100 µM | > 100 µM | > 100 µM | > 100 µM | > 100 µM
3 | Cc1nc(SCC(N)=O)c2sc(=S)n(-c3ccccc3)c2n1 | > 10 µM | > 10 µM | > 10 µM | > 10 µM | > 10 µM | > 10 µM | > 10 µM | > 10 µM | > 10 µM | > 10 µM
4 | CCN(CC)c1ccc(NC(=S)NN(C)C)cc1 | > 10 µM | > 10 µM | > 10 µM | > 10 µM | > 10 µM | > 10 µM | > 10 µM | > 10 µM | > 10 µM | > 10 µM
5 | C[n+]1c(-c2ccc(NC(=O)c3ccc(C(=O)Nc4ccc(-c5cn6ccccc6[n+]5C)cc4)cc3)cc2)cn2ccccc21 | > 100 µM | > 100 µM | > 100 µM | > 100 µM | > 100 µM | > 100 µM | > 100 µM | > 100 µM | > 100 µM | > 100 µM
6 | COc1cc2c3c(cc(Cl)nc3c1OC)C(=O)C(=O)N2 | 27.9 µM | 11.9 µM | 3.56 µM | > 100 µM | 3.83 µM | 14.9 µM | 43.9 µM | 36.4 µM | 21 µM | > 55.5 µM
7 | CCCCCCCCCCCCNC(=O)CCC(NC(=O)c1ccc(N(C)Cc2cnc3nc(N)nc(N)c3n2)cc1)C(=O)NCCCCCCCCCCCC (stereo not given) | > 100 µM | > 100 µM | 87.1 µM | 62.6 µM | > 100 µM | > 100 µM | > 100 µM | > 100 µM | > 100 µM | > 100 µM
8 | Cc1ccc(S(=O)(=O)c2c(O)c3ccc(O)c(C)c3oc2=O)cc1 | > 100 µM | > 100 µM | > 100 µM | > 100 µM | > 100 µM | > 100 µM | > 100 µM | > 100 µM | > 100 µM | > 100 µM
9 | COC(=O)C1=C(C)NC(C)=C(C(=O)OC)C1c1cccc(N=O)c1 | 27.6 µM | 36 µM | 25.8 µM | > 100 µM | 27.9 µM | 11.8 µM | 28.5 µM | 33.5 µM | 33.3 µM | 17.7 µM
10 | O=C(Sc1c(-c2ccccc2)c(=O)n(-c2ccccc2)c(=S)n1-c1ccccc1)c1ccco1 | > 100 µM | > 100 µM | 59.2 µM | > 100 µM | > 100 µM | > 100 µM | > 100 µM | > 100 µM | > 100 µM | > 100 µM
11 | CCOc1ccc(NCC2CC/C(=C\C=C\c3ccccc3)C2=O)cc1 (stereo not given) | > 92.2 µM | > 86.2 µM | 47.8 µM | > 100 µM | 24.7 µM | 32.3 µM | 42.9 µM | 37.8 µM | 35.4 µM | 21.3 µM
12 | Cc1cc(OCc2nnc3sc(NC(=O)c4ccccc4)nn23)ccc1Cl | 42.9 µM | 89.7 µM | > 100 µM | > 100 µM | > 100 µM | 61 µM | 47.1 µM | > 100 µM | > 100 µM | > 100 µM
13 | O=C(/C=C\Nc1ccccc1O)C(F)(F)F | > 100 µM | > 100 µM | 67.8 µM | > 100 µM | > 100 µM | > 100 µM | > 100 µM | > 100 µM | > 100 µM | > 100 µM
14 | COc1ccc(OC/C(N=Cc2ccncc2)=N/NC(=O)c2ccncc2)cc1 | > 100 µM | > 100 µM | > 100 µM | > 100 µM | > 100 µM | > 100 µM | > 100 µM | > 100 µM | > 100 µM | > 100 µM
15 | Clc1cc(C(c2cc(Cl)sc2Cl)c2cc(Cl)sc2Cl)c(Cl)s1 | > 100 µM | > 100 µM | > 100 µM | > 100 µM | > 100 µM | > 100 µM | > 100 µM | > 100 µM | > 100 µM | > 100 µM
16 | CC1(C)OC[C@@H](C[C@H](O)COCc2ccccc2)O1 | > 100 µM | > 100 µM | > 100 µM | > 100 µM | > 100 µM | > 100 µM | > 100 µM | > 100 µM | > 100 µM | > 100 µM

Row | SMILES | TGI (ACHN renal) | TGI (EKVX NSCLC) | TGI (HL-60(TB) leukemia) | TGI (K-562 leukemia) | TGI (MDA-MB-231 breast) | TGI (NCI-H522 lung) | TGI (OVCAR-8 ovarian) | TGI (SF-539 CNS) | TGI (SN12C renal) | TGI (SW-620 colon)
17 | COc1cccc(N2C(=O)CS(=O)(=O)C2c2cccc(Oc3ccccc3)c2)c1 (stereo not given) | 60.2 µM | 59.3 µM | > 100 µM | 19.5 µM | > 100 µM | 37.6 µM | 77.2 µM | 38.4 µM | 38.2 µM | > 100 µM
18 | COc1cc2c3cc1Oc1c(OC)c(OC)cc4c1C(Cc1ccc(O)c(c1)Oc1ccc(cc1)CC3N(C)CC2)CN(C)C4 (stereo not given) | > 100 µM | 43.4 µM | 6.11 µM | 29.6 µM | 28.1 µM | 26.2 µM | 31.3 µM | 26.9 µM | 34.7 µM | 30 µM
19 | O=C1/C(=C/c2ccncc2)C(n2cccc2)c2c(Br)sc(Br)c21 (stereo not given) | 17.1 µM | 8.87 µM | 4.68 µM | 6.91 µM | 4.96 µM | 30.5 µM | 5.82 µM | 17.1 µM | 16.4 µM | 3.55 µM
20 | O=C(O)C1=NN(c2ccc(S(=O)(=O)O)cc2)C2(C1)C(Cl)C(=O)N2c1nc2ccccc2s1 (stereo not given) | 30.7 µM | 34.3 µM | 34.4 µM | 58.5 µM | 37.5 µM | 25.8 µM | 38.8 µM | 12.6 µM | 43.7 µM | 19.8 µM
21 | Nc1nncc2[nH]cnc12 | > 100 µM | > 100 µM | 42.9 µM | > 100 µM | > 100 µM | > 100 µM | > 79.8 µM | > 100 µM | > 100 µM | > 100 µM
22 | CC(=O)OCC(=O)O[C@@H]1[C@H]2[C@@H](OC(=O)c3ccccc3)[C@@H](C)C[C@]2(O)[C@H](OC(C)=O)[C@@]2(C)C[C@]1(OC(C)=O)C[C@H]1C(=O)C(C)(C)[C@@H](OC(C)=O)[C@@H]12 | > 25 µM | > 25 µM | > 25 µM | > 25 µM | > 25 µM | > 25 µM | > 25 µM | > 25 µM | > 25 µM | > 25 µM
23 | CNC(=S)NNc1ncnc2c1c(-c1ccc(Cl)cc1)cn2-c1ccc(C)cc1 | 22.8 µM | 28.8 µM | > 100 µM | > 100 µM | 21.7 µM | 20.7 µM | 31.5 µM | 29.8 µM | 24.3 µM | 21.7 µM
24 | CN(C)CCNc1c([N+](=O)[O-])sc2ccc(Cl)cc12 | > 100 µM | > 100 µM | > 100 µM | > 100 µM | > 100 µM | 87.4 µM | > 100 µM | 46.9 µM | > 100 µM | > 100 µM
25 | O=C1CS/C(=N/N=C/c2cn(Cc3ccc(Cl)cc3Cl)c3ccccc23)N1 | > 100 µM | 48.5 µM | > 100 µM | > 100 µM | 48 µM | > 100 µM | 30.6 µM | 41 µM | 70.9 µM | > 100 µM
26 | C[N+]1(CCN=C=NC2CCCCC2)CCOCC1 | > 100 µM | > 100 µM | > 100 µM | > 100 µM | > 100 µM | > 100 µM | > 100 µM | > 100 µM | > 100 µM | > 100 µM
27 | CC1(C)N=C(N)N=C(N)N1c1cccc(OCc2cccc(N)c2)c1 | > 100 µM | > 100 µM | 47.5 µM | > 100 µM | > 100 µM | > 100 µM | > 100 µM | > 80.4 µM | > 100 µM | > 100 µM
28 | Cc1cc(S(=O)(=O)Nc2n[nH]c(Nc3ccccc3)n2)c(SCC(=O)O)cc1Cl | > 100 µM | > 100 µM | > 100 µM | > 100 µM | > 100 µM | > 100 µM | > 100 µM | > 100 µM | > 100 µM | > 100 µM
29 | CCOc1ccc(N=Nc2ccc3cc(/C(C)=N/NC(=O)/C(C#N)=C\c4ccc(N(CCC#N)CCC#N)cc4)c(=O)oc3c2)cc1 | > 10 µM | > 10 µM | > 10 µM | > 10 µM | > 10 µM | > 10 µM | > 10 µM | > 10 µM | > 10 µM | > 10 µM
30 | CC(C)(C)c1cc(/C=C2/NC(=O)NC2=O)cc(C(C)(C)C)c1O | 24.1 µM | 24 µM | 25.9 µM | 33.1 µM | 26.2 µM | 26.4 µM | 38.5 µM | 31.6 µM | 31.4 µM | 39.3 µM
31 | COc1ccc(C2Oc3c(OC)cc(CCCO)cc3C2CO)cc1OC (stereo not given) | > 100 µM | > 100 µM | > 100 µM | > 100 µM | > 100 µM | > 100 µM | > 100 µM | > 100 µM | > 100 µM | > 100 µM
32 | NC(Cc1[nH]nc2ccccc12)C(=O)O (stereo not given) | > 100 µM | > 100 µM | > 100 µM | > 100 µM | > 100 µM | > 100 µM | > 100 µM | > 100 µM | > 100 µM | > 100 µM
